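In this assay, cells in 96-well plates receive the compound at five concentrations for 48 hours. Endpoints are linearly interpolated between the surrounding concentrations. The concentration for 50% growth inhibition is given as GI50.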 Activity calls are given as the source filed them. No stated cut-off is given here; in the data, active = GI50 up to about 1.1 µM and inactive = higher.
Tests used:
Assay in all cases: NCI tumour cell line growth inhibition, 48 h
DLD-1 = test system: DLD-1
DMS-114 = test system: DMS-114
DMS-273 = test system: DMS-273
KM-20L2 = test system: KM-20L2
LXFL 529 = test system: LXFL 529
M19-MEL = test system: M19-MEL
SNB-78 = test system: SNB-78
XF498 = test system: XF498
RXF 631 = test system: RXF 631

Measured: GI50

CC1(C)CC(=O)C2=C(C1)S/C(=C1/SC3=C(S1)C(=O)CC(C)(C)C3)S2
inactive: DLD-1 > 251 µM | DMS-114 > 251 µM | DMS-273 > 251 µM | KM-20L2 > 251 µM | LXFL 529 > 251 µM | M19-MEL > 251 µM | SNB-78 > 251 µM | XF498 > 251 µM

O=C(/C=C/c1cc(Cl)cc(Cl)c1O)c1cccc(O)c1
inactive: DLD-1 38.8 µM | DMS-114 35.9 µM | DMS-273 54.2 µM | KM-20L2 48.3 µM | LXFL 529 57.1 µM | M19-MEL 26.5 µM | SNB-78 91.8 µM

CN(C)C(=S)Nc1nnc(Nc2ccccc2)s1
inactive: DLD-1 > 100 µM | DMS-273 > 100 µM | KM-20L2 > 100 µM | LXFL 529 > 100 µM | M19-MEL > 100 µM | RXF 631 > 100 µM | SNB-78 > 100 µM

COC(=O)C1=C(C)N(NC(N)=O)C2(N)N(NC(N)=O)C(C)=C(C(=O)OC)C12C(=O)OC (stereo not drawn)
inactive: DLD-1 > 100 µM | DMS-114 > 100 µM | DMS-273 > 100 µM | KM-20L2 > 100 µM | LXFL 529 > 100 µM | M19-MEL > 100 µM | RXF 631 > 100 µM | SNB-78 > 100 µM | XF498 > 100 µM

COc1ccc(-c2nc3c(nc2-c2ccc(OC)cc2)C(N)=NS(=O)(=O)N3)cc1
inactive: DLD-1 > 100 µM | DMS-114 > 100 µM | DMS-273 > 100 µM | M19-MEL > 100 µM | RXF 631 > 100 µM

C1OC1CO[C@@H]1CO[C@H]2[C@@H]1OC[C@H]2OCC1CO1 (stereo partly drawn)
inactive: DLD-1 > 100 µM | DMS-114 > 100 µM | DMS-273 > 100 µM | KM-20L2 > 100 µM | M19-MEL > 100 µM | SNB-78 > 100 µM | XF498 > 100 µM

Nc1nc2ncn(CC(O)CO)c2c(=S)[nH]1 (stereo not drawn)
inactive: DLD-1 > 100 µM | DMS-114 > 100 µM | DMS-273 > 100 µM | KM-20L2 > 100 µM | LXFL 529 > 100 µM | M19-MEL > 100 µM | RXF 631 > 100 µM | SNB-78 > 100 µM | XF498 23.4 µM

C1=CC(N(c2ccccc2)C2C=CCCC2)CCC1 (stereo not drawn)
inactive: DLD-1 > 100 µM | DMS-114 67.3 µM | DMS-273 > 100 µM | KM-20L2 72.6 µM | LXFL 529 > 100 µM | M19-MEL > 100 µM

CCOc1ccc(N2C(=O)/C(=C/c3ccc(N(CCC#N)CCC#N)cc3)N=C2c2cc([N+](=O)[O-])ccc2Cl)cc1
inactive: DLD-1 32.2 µM | DMS-114 33.9 µM | DMS-273 14.7 µM | LXFL 529 30 µM | M19-MEL 24.2 µM | RXF 631 39.6 µM | SNB-78 > 100 µM

O=C(CC(=O)c1cccc2ccccc12)C(=O)NC1C2CC3CC(C2)CC1C3 (stereo not drawn)
inactive: DLD-1 > 100 µM | DMS-114 > 100 µM | DMS-273 > 100 µM | KM-20L2 > 100 µM | LXFL 529 > 100 µM | M19-MEL > 100 µM | RXF 631 > 100 µM | SNB-78 > 100 µM | XF498 > 100 µM

O=C1Nc2ccccc2C12CCNC2Cc1ccccc1 (stereo not drawn)
inactive: DLD-1 > 100 µM | DMS-114 > 100 µM | DMS-273 > 100 µM | KM-20L2 > 100 µM | LXFL 529 > 100 µM | M19-MEL > 100 µM | XF498 > 100 µM

C#CN1C(=O)c2c(c(-c3ccccc3)c(-c3ccc(Oc4ccc(-c5c(-c6ccccc6)c6c(c(-c7ccccc7)c5-c5ccccc5)C(=O)N(C#C)C6=O)cc4)cc3)c(-c3ccccc3)c2-c2ccccc2)C1=O
inactive: DLD-1 > 100 µM | DMS-114 > 100 µM | DMS-273 > 100 µM | KM-20L2 > 100 µM | M19-MEL > 100 µM | XF498 23.2 µM

O=C(/C=C1/Nc2ccc([N+](=O)[O-])cc2NC1O)c1cccc([N+](=O)[O-])c1 (stereo not drawn)
inactive: DLD-1 17.3 µM | DMS-114 32.1 µM | DMS-273 16.3 µM | KM-20L2 25.4 µM | LXFL 529 19.9 µM | M19-MEL 58.3 µM | SNB-78 > 100 µM | XF498 > 100 µM

COc1ccc(/C(=N\NC(=N)N)C(c2ccc(OC)cc2)C2OC(=O)c3ccccc32)cc1 (stereo not drawn)
inactive: DLD-1 > 100 µM | DMS-114 > 100 µM | DMS-273 > 100 µM | KM-20L2 > 100 µM | LXFL 529 > 100 µM | M19-MEL > 100 µM | RXF 631 > 100 µM | SNB-78 > 100 µM | XF498 > 100 µM

COc1ccc(C2S/C(=C\c3ccc([N+](=O)[O-])cc3)C(=O)N2NC(=O)Cc2ccccc2)cc1 (stereo not drawn)
inactive: DLD-1 > 100 µM | DMS-114 45.8 µM | DMS-273 > 100 µM | LXFL 529 > 100 µM | M19-MEL > 100 µM

O=C(/C=C/c1ccc(OCCCCCCCCCCOc2ccc(/C=C/C(=O)c3ccc(Cl)cc3)cc2)cc1)c1ccc(Cl)cc1
inactive: DLD-1 > 100 µM | DMS-114 > 100 µM | DMS-273 > 100 µM | KM-20L2 > 100 µM | RXF 631 > 100 µM | SNB-78 > 100 µM

O=C(c1ccc(Cl)cc1)C1OC12C(=O)Nc1ccccc12 (stereo not drawn)
inactive: DLD-1 2.42 µM | DMS-114 12.4 µM | DMS-273 12.7 µM | KM-20L2 19.4 µM | LXFL 529 3.08 µM | M19-MEL 10.4 µM | RXF 631 17 µM | SNB-78 16 µM | XF498 12.5 µM

CCCCN(Cc1ccccc1)/C(=N/C#N)N(Cc1ccccc1)Cc1ccccc1
inactive: DLD-1 24.9 µM | DMS-273 16.6 µM | KM-20L2 6.82 µM | LXFL 529 7.94 µM | M19-MEL 24.4 µM | SNB-78 24.2 µM

O=C1N[C@@H](O)[C@@H]2ON=C(c3ccccc3)[C@H]12
inactive: DLD-1 > 100 µM | DMS-114 > 100 µM | DMS-273 > 100 µM | KM-20L2 > 100 µM | LXFL 529 > 100 µM | M19-MEL > 100 µM | RXF 631 > 100 µM | XF498 > 100 µM

c1ccc(SC23C4C5C6C4C2C6C53)nc1 (stereo not drawn)
inactive: DLD-1 > 100 µM | DMS-114 > 100 µM | DMS-273 > 100 µM | KM-20L2 > 100 µM | LXFL 529 > 100 µM | M19-MEL > 100 µM | RXF 631 > 100 µM | SNB-78 > 100 µM

COc1cc(C=O)c(-c2cc3c(cc2C2(C)OCCS2)OCO3)c(OC)c1OC (stereo not drawn)
inactive: DLD-1 16.7 µM | DMS-114 17.5 µM | DMS-273 10.3 µM | KM-20L2 4.08 µM | LXFL 529 17.6 µM | SNB-78 8.65 µM | XF498 9.66 µM
